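The concentration for 50% growth inhibition is given as GI50. TGI marks complete inhibition of growth.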
Tests used:
Assay in all cases: inhibition of tumour cell growth, NCI panel, 384-well format; in the data active means GI50 below about 0.43 µM; inactive means the rest
HOP-92 NSCLC = tested on: HOP-92 NSCLC
CCRF-CEM leukemia = tested on: CCRF-CEM leukemia
A549 NSCLC = tested on: A549 NSCLC
U251 glioblastoma = tested on: U251 glioblastoma
UACC-257 melanoma = tested on: UACC-257 melanoma
COLO 205 colon = tested on: COLO 205 colon
OVCAR-5 ovarian = tested on: OVCAR-5 ovarian
SK-MEL-2 melanoma = tested on: SK-MEL-2 melanoma
RXF 393 renal = tested on: RXF 393 renal
OVCAR-8 ovarian = tested on: OVCAR-8 ovarian
MDA-MB-435 melanoma = tested on: MDA-MB-435 melanoma
KM12 colon = tested on: KM12 colon
SK-OV-3 ovarian = tested on: SK-OV-3 ovarian
OVCAR-3 ovarian = tested on: OVCAR-3 ovarian
A498 renal = tested on: A498 renal
RPMI-8226 leukemia = tested on: RPMI-8226 leukemia
DU-145 prostate = tested on: DU-145 prostate
UACC-62 melanoma = tested on: UACC-62 melanoma
SNB-19 CNS = tested on: SNB-19 CNS
LOX IMVI melanoma = tested on: LOX IMVI melanoma
HL-60(TB) leukemia = tested on: HL-60(TB) leukemia
T-47D breast = tested on: T-47D breast
HCT-116 colon = tested on: HCT-116 colon
MALME-3M melanoma = tested on: MALME-3M melanoma
MDA-MB-231 breast = tested on: MDA-MB-231 breast
BT-549 breast = tested on: BT-549 breast
MDA-MB-468 breast = tested on: MDA-MB-468 breast
SW-620 colon = tested on: SW-620 colon
K-562 leukemia = tested on: K-562 leukemia
SN12C renal = tested on: SN12C renal
HCT-15 colon = tested on: HCT-15 colon
HCC-2998 colon = tested on: HCC-2998 colon
SF-539 CNS = tested on: SF-539 CNS
M14 melanoma = tested on: M14 melanoma
HOP-62 NSCLC = tested on: HOP-62 NSCLC
NCI-H322M lung = tested on: NCI-H322M lung
UO-31 renal = tested on: UO-31 renal
SR leukemia = tested on: SR leukemia
NCI-H226 lung = tested on: NCI-H226 lung
NCI/ADR-RES ovarian = tested on: NCI/ADR-RES ovarian
SK-MEL-28 melanoma = tested on: SK-MEL-28 melanoma
NCI-H522 lung = tested on: NCI-H522 lung
ACHN renal = tested on: ACHN renal
SF-268 CNS = tested on: SF-268 CNS
MOLT-4 leukemia = tested on: MOLT-4 leukemia
EKVX NSCLC = tested on: EKVX NSCLC
SF-295 CNS = tested on: SF-295 CNS

CN1CCN(c2ccc(Nc3cc(-c4cccc(-n5ccc6cc(C7CC7)cc(F)c6c5=O)c4CO)cn(C)c3=O)nc2)CC1
4.93 µM: TGI (SF-295 CNS)
3.33 µM: TGI (K-562 leukemia)
3.97 µM: TGI (OVCAR-5 ovarian)
7.57 µM: TGI (HOP-62 NSCLC)
5.66 µM: TGI (NCI/ADR-RES ovarian)
2.94 µM: TGI (SR leukemia)
13.5 µM: TGI (SNB-19 CNS)
3.14 µM: TGI (SF-539 CNS)
11.7 µM: TGI (MDA-MB-435 melanoma)
5.1 µM: TGI (KM12 colon)
3.11 µM: TGI (RXF 393 renal) | TGI (SK-MEL-28 melanoma)
3.34 µM: TGI (SK-MEL-2 melanoma)
5.29 µM: TGI (BT-549 breast)
4.78 µM: TGI (HOP-92 NSCLC)
3.69 µM: TGI (COLO 205 colon)
10.5 µM: TGI (A549 NSCLC)
3.54 µM: TGI (M14 melanoma)
4.03 µM: TGI (NCI-H226 lung)
3.16 µM: TGI (UACC-62 melanoma) | TGI (MDA-MB-468 breast)
4.54 µM: TGI (U251 glioblastoma)
3.25 µM: TGI (HL-60(TB) leukemia)
3.52 µM: TGI (LOX IMVI melanoma)
3.71 µM: TGI (T-47D breast)
3.19 µM: TGI (UO-31 renal)
3.13 µM: TGI (UACC-257 melanoma)
9.08 µM: TGI (DU-145 prostate)
3.56 µM: TGI (OVCAR-8 ovarian) | TGI (RPMI-8226 leukemia)
3.18 µM: TGI (CCRF-CEM leukemia)
7.46 µM: TGI (SF-268 CNS)
inactive: GI50 (HOP-92 NSCLC) 2.11 µM | GI50 (CCRF-CEM leukemia) 1.78 µM | GI50 (A549 NSCLC) 3.1 µM | GI50 (U251 glioblastoma) 2.2 µM | GI50 (UACC-257 melanoma) 1.74 µM | GI50 (COLO 205 colon) 2.02 µM | GI50 (OVCAR-5 ovarian) 1.94 µM | GI50 (SK-MEL-2 melanoma) 1.8 µM | GI50 (RXF 393 renal) 1.6 µM | GI50 (OVCAR-8 ovarian) 1.79 µM | GI50 (MDA-MB-435 melanoma) 3.59 µM | GI50 (KM12 colon) 2.4 µM | GI50 (SK-OV-3 ovarian) 2.59 µM | GI50 (OVCAR-3 ovarian) 1.79 µM | GI50 (A498 renal) 2.05 µM | GI50 (RPMI-8226 leukemia) 2.06 µM | GI50 (DU-145 prostate) 2.97 µM | GI50 (UACC-62 melanoma) 1.74 µM | GI50 (SNB-19 CNS) 3.96 µM | GI50 (LOX IMVI melanoma) 2.04 µM | GI50 (HL-60(TB) leukemia) 1.84 µM | GI50 (T-47D breast) 1.75 µM | GI50 (HCT-116 colon) 1.71 µM | GI50 (MALME-3M melanoma) 1.86 µM | GI50 (MDA-MB-231 breast) 1.95 µM | GI50 (BT-549 breast) 2.24 µM | GI50 (MDA-MB-468 breast) 1.7 µM | GI50 (SW-620 colon) 2.61 µM | GI50 (K-562 leukemia) 1.77 µM | GI50 (SN12C renal) 1.76 µM | GI50 (HCT-15 colon) 2.45 µM | GI50 (HCC-2998 colon) 2.09 µM | GI50 (SF-539 CNS) 1.71 µM | GI50 (M14 melanoma) 2.01 µM | GI50 (HOP-62 NSCLC) 2.77 µM | GI50 (NCI-H322M lung) 3.91 µM | GI50 (UO-31 renal) 1.77 µM | GI50 (SR leukemia) 1.58 µM | GI50 (NCI-H226 lung) 1.99 µM | GI50 (NCI/ADR-RES ovarian) 2.51 µM | GI50 (SK-MEL-28 melanoma) 1.71 µM | GI50 (NCI-H522 lung) 2.05 µM | GI50 (ACHN renal) 1.6 µM | GI50 (SF-268 CNS) 2.4 µM | GI50 (MOLT-4 leukemia) 1.51 µM | GI50 (EKVX NSCLC) 2.03 µM | GI50 (SF-295 CNS) 2.21 µM
3.63 µM: TGI (SN12C renal)
3.28 µM: TGI (OVCAR-3 ovarian)
3.26 µM: TGI (HCT-116 colon)
3.96 µM: TGI (A498 renal)
4.02 µM: TGI (NCI-H522 lung)
6.61 µM: TGI (SK-OV-3 ovarian)
3.01 µM: TGI (ACHN renal)
7.4 µM: TGI (HCT-15 colon)
9.99 µM: TGI (NCI-H322M lung)
3.27 µM: TGI (MALME-3M melanoma)
4.57 µM: TGI (EKVX NSCLC)
5.3 µM: TGI (HCC-2998 colon)
3.92 µM: TGI (MDA-MB-231 breast)
6.97 µM: TGI (SW-620 colon)
2.85 µM: TGI (MOLT-4 leukemia)

O=C(NC[C@H](O)CN1CCc2ccccc2C1)c1cc(NC2COC2)ncn1
8.35 µM: TGI (SR leukemia)
inactive: GI50 (HOP-92 NSCLC) > 100 µM | GI50 (CCRF-CEM leukemia) > 100 µM | GI50 (A549 NSCLC) > 100 µM | GI50 (U251 glioblastoma) > 100 µM | GI50 (UACC-257 melanoma) > 100 µM | GI50 (COLO 205 colon) > 100 µM | GI50 (OVCAR-5 ovarian) > 100 µM | GI50 (SK-MEL-2 melanoma) > 100 µM | GI50 (RXF 393 renal) > 100 µM | GI50 (OVCAR-8 ovarian) > 100 µM | GI50 (MDA-MB-435 melanoma) > 100 µM | GI50 (KM12 colon) > 42.7 µM | GI50 (SK-OV-3 ovarian) > 100 µM | GI50 (OVCAR-3 ovarian) > 69.1 µM | GI50 (A498 renal) > 100 µM | GI50 (RPMI-8226 leukemia) > 47.7 µM | GI50 (DU-145 prostate) > 100 µM | GI50 (UACC-62 melanoma) > 100 µM | GI50 (SNB-19 CNS) > 100 µM | GI50 (LOX IMVI melanoma) > 100 µM | GI50 (HL-60(TB) leukemia) > 28.3 µM | GI50 (T-47D breast) 4.97 µM | GI50 (HCT-116 colon) > 100 µM | GI50 (MALME-3M melanoma) > 100 µM | GI50 (MDA-MB-231 breast) > 100 µM | GI50 (BT-549 breast) > 100 µM | GI50 (MDA-MB-468 breast) > 100 µM | GI50 (SW-620 colon) > 100 µM | GI50 (K-562 leukemia) > 100 µM | GI50 (SN12C renal) > 100 µM | GI50 (HCT-15 colon) > 100 µM | GI50 (HCC-2998 colon) > 100 µM | GI50 (SF-539 CNS) > 100 µM | GI50 (M14 melanoma) > 100 µM | GI50 (HOP-62 NSCLC) > 100 µM | GI50 (NCI-H322M lung) > 100 µM | GI50 (UO-31 renal) > 100 µM | GI50 (NCI-H226 lung) > 100 µM | GI50 (NCI/ADR-RES ovarian) > 100 µM | GI50 (SK-MEL-28 melanoma) > 100 µM | GI50 (NCI-H522 lung) > 100 µM | GI50 (ACHN renal) > 100 µM | GI50 (SF-268 CNS) > 100 µM | GI50 (EKVX NSCLC) > 100 µM | GI50 (SF-295 CNS) > 100 µM
active: GI50 (SR leukemia) 0.117 µM | GI50 (MOLT-4 leukemia) 0.0768 µM
> 100 µM: TGI (HOP-92 NSCLC) | TGI (CCRF-CEM leukemia) | TGI (A549 NSCLC) | TGI (U251 glioblastoma) | TGI (UACC-257 melanoma) | TGI (COLO 205 colon) | TGI (OVCAR-5 ovarian) | TGI (SK-MEL-2 melanoma) | TGI (RXF 393 renal) | TGI (OVCAR-8 ovarian) | TGI (MDA-MB-435 melanoma) | TGI (KM12 colon) | TGI (SK-OV-3 ovarian) | TGI (OVCAR-3 ovarian) | TGI (A498 renal) | TGI (RPMI-8226 leukemia) | TGI (DU-145 prostate) | TGI (UACC-62 melanoma) | TGI (SNB-19 CNS) | TGI (LOX IMVI melanoma) | TGI (HL-60(TB) leukemia) | TGI (T-47D breast) | TGI (HCT-116 colon) | TGI (MALME-3M melanoma) | TGI (MDA-MB-231 breast) | TGI (BT-549 breast) | TGI (MDA-MB-468 breast) | TGI (SW-620 colon) | TGI (K-562 leukemia) | TGI (SN12C renal) | TGI (HCT-15 colon) | TGI (HCC-2998 colon) | TGI (SF-539 CNS) | TGI (M14 melanoma) | TGI (HOP-62 NSCLC) | TGI (NCI-H322M lung) | TGI (UO-31 renal) | TGI (NCI-H226 lung) | TGI (NCI/ADR-RES ovarian) | TGI (SK-MEL-28 melanoma) | TGI (NCI-H522 lung) | TGI (ACHN renal) | TGI (SF-268 CNS) | TGI (EKVX NSCLC) | TGI (SF-295 CNS)
